The text below walks through data of patent US8217176B2, “Fused heterocyclic derivative and use thereof” (Takeda Pharmaceutical Company Limited, priority 2008, dated 2012).

Assay [1] deals with mouse medulloblastoma allogeneic transplantation model. In words: In vivo anti-tumor test, mouse medulloblastoma allogeneic transplantation model. To be noted: 6.25 mg/kg orally twice a day for 2 weeks; nude mouse, subcutaneous medulloblastoma from Patched 1(+/-), p53(-/-) mouse; end of administration. As for the experimental part:
According to the description in Sasaki, K. et al., (2006) Cancer Res. 66: 4215-4222, an anti-tumor effect of a compound was evaluated using a mouse medulloblastoma allogeneic transplantation model. To be precise, Patched 1 gene mutant mouse (lineage name: Ptch1tm1Mps/J) was purchased from The Jackson Laboratory and p53 gene mutant mouse (lineage name: P53N4-M, Nomenclature: B6.129-Trp53tm/BrdN4) was purchased from Taconic, and a mouse of Patched 1(+/−), p53(−/−) phenotype was prepared by mating. The tumor tissue of medulloblastoma spontaneously occurred in the cerebellum of 7- to 9-week-old Patched 1(+/−), p53(−/−) mouse was taken and subcutaneously transplanted into a nude mouse (lineage name: CAnN.Cg-Foxn1/CrlCrlj).
An anti-tumor test was performed using a tumor passaged by subcutaneous transplantation. A tumor mass was isolated by a 40 μm cell strainer (BD Biosciences, Cat. No. 352340), a tumor suspension was prepared with Leibovitz's L-15 medium (GIBCO, Cat. No. 11415-114) in a 2-fold amount relative to the tumor mass weight, mixed with an equivalent amount of matrigel (BD Biosciences, Cat. No. 356237), and subcutaneously transplanted to a mouse at […] per transplantation site. The tumor diameter after transplantation was measured and, when the tumor size reached 150-250 mm^3, the anti-tumor test was started using 5 mice per group.
The test compound was prepared to achieve a dose of 6.25 mg/kg with a 0.5% methylcellulose (Shin-Etsu Chemical Co., Ltd., Cat. No. SM-100) suspension, and orally administered twice a day for 2 weeks. The tumor size was calculated based on the longer diameter and shorter diameter of the tumor measured with an electron vernier caliper. After the start of the test, the tumor size was measured every 2 or 3 days and the growth rate of the tumor size was calculated. A tumor growth inhibitory effect of 95% or above was confirmed in each test compound administration group.
The tumor growth rate and the results of a significant difference test by the administration of each test compound are shown in the Table. The growth rate of the tumor size (T/C) was calculated according to: growth rate (T/C)=((tumor size of compound administration group at the end of administration)−(tumor size of compound administration group at the start of administration))/((tumor size of control group at the end of administration)−(tumor size of control group at the start of administration))×100.

For assay [2], the system named is NIH-3T3/Gli reporter cells. Briefly: Evaluation of compound: Shh-N-induced luciferase activity in NIH-3T3/Gli reporter cells (Smo inhibitory action). Type of assay: cell-based. To be noted: 48 hr; for inhibition at 1 µM: NIH3T3, 1 μM compound, mouse Shh-N end fragment supernatant, read-out: inhibition rate (%) at 1 μM. As for the experimental part:
HEK293 cells were grown in D-MEM medium (Invitrogen) containing 10% fetal bovine serum in a 10 cm dish and pcDNA3.1/mShh-N was introduced into the cells using FuGENE6 (Roche Applied Science). Thereafter, the HEK293 cells were cultured in a carbon dioxide gas incubator at 37° C. for 24 hours, and the medium was exchanged with D-MEM medium (Invitrogen) containing 2% fetal bovine serum. After culturing for 48 hr, a culture supernatant containing recombinant type mouse Shh-N end fragment was obtained by filtration using a filter ([…]).
Using D-MEM (Invitrogen) containing 10% fetal bovine serum, expression plasmid pcDNA3.1 and Gli reporter plasmid (pGL3/δ-cry promoter, 8×Gli binding site) produced by the method of Experimental Example 1 were introduced into NIH-3T3 cells grown in a 10 cm dish by the use of FuGENE6 (Roche Applied Science).
After culture for 24 hr, the cells were recovered, suspended in D-MEM medium containing 10% fetal bovine serum and supplemented with Geneticin (Life Technologies Oriental, Inc.) to a final concentration of 500 μg/ml, diluted to 10^4 cells/ml, plated on a 96 well plate, and cultured in a carbon dioxide gas incubator at 37° C. to give Geneticin resistant transformed cell line.
The obtained transformed cell line was cultured in a 96 well plate, mouse Shh-N end fragment obtained in Experimental Example 3 was added, and NIH-3T3/Gli reporter cell, which is a cell line capable of induction of luciferase expression, was selected.
NIH-3T3/Gli reporter cells cultured in D-MEM (Invitrogen) containing 10% fetal bovine serum were plated in a 96 well white plate at 1×10^4 cells/well, and cultured overnight in a carbon dioxide gas incubator at 37° C. The medium was removed, a compound (50 μl) and culture supernatant of mouse Shh-N end fragment-expressing HEK293 (D-MEM medium containing 2% fetal bovine serum, 50 μl) were added, and the cells were cultured for 48 hr in a carbon dioxide gas incubator at 37° C. Bright-Glo (Promega, 50 μl) was added, and the mixture was stirred, after which luciferase activity was measured by EnVision (PerkinElmer). The inhibition rate was calculated based on the luciferase activity of the control without addition of the compound as 100. The concentration of the compound and the inhibition rate were analyzed by PRISM3.00 (software of GraphPad), based on which the IC50 value (compound concentration necessary for achieving 50% of the maximum value of inhibition rate) of the compound was calculated.

`COc1c(C(=O)NC2CCN(CCO)CC2)n(C)c2c1c(=O)n(CC(=O)c1ccccc1)c1ccccc21` [Example 79, N-[1-(2-hydroxyethyl)piperidin-4-yl]-3-methoxy-1-methyl-4-oxo-5-(2-oxo-2-phenylethyl)-4,5-dihydro-1H-pyrrolo[3,2-c]quinoline-2-carboxamide]: in assay [1], the “T/C (%) growth rate of the tumor size” value came out at 0.8%. Also, the inhibition at 1 µM in assay [2] is 100%. Besides, the IC50 in assay [2] (NIH3T3, mouse Shh-N end fragment supernatant, read-out: IC50 value (compound concentration necessary for achieving 50% of the maximum value of inhibition rate)) is no more than 1000 nM. As to `COc1c(C(=O)NC2CCN(C(=O)CO)CC2)n(C)c2c1c(=O)n(CC(=O)c1ccccc1)c1ccccc21` [Example 124, N-[1-(hydroxyacetyl)piperidin-4-yl]-3-methoxy-1-methyl-4-oxo-5-(2-oxo-2-phenylethyl)-4,5-dihydro-1H-pyrrolo[3,2-c]quinoline-2-carboxamide], the “T/C (%) growth rate of the tumor size” value in assay [1] was 2.0%. Besides, the inhibition at 1 µM in assay [2] was determined as 100%. As to `CCOc1c(C(=O)NC2CCN(C(=O)CO)CC2)n(C)c2cc(CC)n(CC(=O)c3ccccc3)c(=O)c12` [Example 139, 3-ethoxy-6-ethyl-N-[1-(hydroxyacetyl)piperidin-4-yl]-1-methyl-4-oxo-5-(2-oxo-2-phenylethyl)-4,5-dihydro-1H-pyrrolo[3,2-c]pyridine-2-carboxamide], the “T/C (%) growth rate of the tumor size” value in assay [1] came to 0.4%. Besides, in assay [2], the inhibition at 1 µM was 100%. With `Cc1cc2c(c(OCC(F)(F)F)c(C(=O)NC3CCN(C(=O)CO)CC3)n2C)c(=O)n1CC(=O)c1ccccc1` [Example 140, N-[1-(hydroxyacetyl)piperidin-4-yl]-1,6-dimethyl-4-oxo-5-(2-oxo-2-phenylethyl)-3-(2,2,2-trifluoroethoxy)-4,5-dihydro-1H-pyrrolo[3,2-c]pyridine-2-carboxamide], the “T/C (%) growth rate of the tumor size” value in assay [1] is recorded as 5.3%. In addition, the inhibition at 1 µM in assay [2] is 100%.

Regarding `CCc1cc2c(c(OCC(F)(F)F)c(C(=O)NC3CCN(C(=O)CO)CC3)n2C)c(=O)n1CC(=O)c1ccccc1` [Example 143, 6-ethyl-N-[1-(hydroxyacetyl)piperidin-4-yl]-1-methyl-4-oxo-5-(2-oxo-2-phenylethyl)-3-(2,2,2-trifluoroethoxy)-4,5-dihydro-1H-pyrrolo[3,2-c]pyridine-2-carboxamide], in assay [1], the “T/C (%) growth rate of the tumor size” value is given as 0.0%. For the same compound, in assay [2], the inhibition at 1 µM is 100%. Regarding `COc1c(C(=O)NC2CCN(C(=O)CO)CC2)n(C)c2c1c(=O)n(CC(=O)c1ccccc1)c1ccc(F)cc21` [Example 584, 8-fluoro-N-[1-(hydroxyacetyl)piperidin-4-yl]-3-methoxy-1-methyl-4-oxo-5-(2-oxo-2-phenylethyl)-4,5-dihydro-1H-pyrrolo[3,2-c]quinoline-2-carboxamide], the inhibition at 1 µM in assay [2] was 100%. As to `COc1c(C(=O)NC2CCN(C(=O)CO)CC2)n(C)c2c1c(=O)n(CC(=O)c1ccccc1)c1ncccc21` [Example 643, N-[1-(hydroxyacetyl)piperidin-4-yl]-3-methoxy-1-methyl-4-oxo-5-(2-oxo-2-phenylethyl)-4,5-dihydro-1H-pyrrolo[3,2-c][1,8]naphthyridine-2-carboxamide], the inhibition at 1 µM in assay [2] was 100%. With `COc1c(C(=O)NC2CCN(C(=O)CO)CC2)n(C)c2c1c(=O)n(CC(=O)c1ccccc1)c1ccncc21` [Example 644, N-[1-(hydroxyacetyl)piperidin-4-yl]-3-methoxy-1-methyl-4-oxo-5-(2-oxo-2-phenylethyl)-4,5-dihydro-1H-pyrrolo[3,2-c][1,6]naphthyridine-2-carboxamide], the inhibition at 1 µM in assay [2] was 100%.

As for `CCOc1c(C(=O)NC2CCN(C(=O)CO)CC2)sc2cc(CC)n(CC(=O)c3ccccc3)c(=O)c12` [Example 650, 3-ethoxy-6-ethyl-N-[1-(hydroxyacetyl)piperidin-4-yl]-4-oxo-5-(2-oxo-2-phenylethyl)-4,5-dihydrothieno[3,2-c]pyridine-2-carboxamide], the inhibition at 1 µM in assay [2] stood at 100%.

In the case of `CCc1cc2c(c(OCC(F)(F)F)c(C(=O)NC3CCN(C(=O)CO)CC3)n2C)c(=O)n1Cc1ccccc1` [Example 654, 5-benzyl-6-ethyl-N-[1-(hydroxyacetyl)piperidin-4-yl]-1-methyl-4-oxo-3-(2,2,2-trifluoroethoxy)-4,5-dihydro-1H-pyrrolo[3,2-c]pyridine-2-carboxamide], the inhibition at 1 µM in assay [2] came to 100%. As for `CCc1cc2c(c(OCC(F)(F)F)c(C(=O)NC3CCN(C(=O)CO)CC3)n2C)c(=O)n1CC(=O)c1cccc(OC)c1` [Example 656, 6-ethyl-N-[1-(hydroxyacetyl)piperidin-4-yl]-5-[2-(3-methoxyphenyl)-2-oxoethyl]-1-methyl-4-oxo-3-(2,2,2-trifluoroethoxy)-4,5-dihydro-1H-pyrrolo[3,2-c]pyridine-2-carboxamide], the inhibition at 1 µM in assay [2] is 100%.

Regarding `CCc1cc2c(c(OCC(F)(F)F)c(C(=O)NC3CCN(C(=O)CO)CC3)n2C)c(=O)n1CC(=O)c1cccc(Cl)c1` [Example 657, 5-[2-(3-chlorophenyl)-2-oxoethyl]-6-ethyl-N-[1-(hydroxyacetyl)piperidin-4-yl]-1-methyl-4-oxo-3-(2,2,2-trifluoroethoxy)-4,5-dihydro-1H-pyrrolo[3,2-c]pyridine-2-carboxamide], the inhibition at 1 µM in assay [2] came to 100%. With `CCc1cc2c(c(OCC(F)(F)F)c(C(=O)NC3CCN(C(=O)CO)CC3)n2C)c(=O)n1Cc1ccccc1OC` [Example 658, 6-ethyl-N-[1-(hydroxyacetyl)piperidin-4-yl]-5-(2-methoxybenzyl)-1-methyl-4-oxo-3-(2,2,2-trifluoroethoxy)-4,5-dihydro-1H-pyrrolo[3,2-c]pyridine-2-carboxamide], the inhibition at 1 µM in assay [2] was 100%. The same measure, in the same setting: the same measure for `CCc1cc2c(c(OCC(F)(F)F)c(C(=O)NC3CCN(C(=O)CO)CC3)n2C)c(=O)n1Cc1ccccc1Cl` [Example 660, 5-(2-chlorobenzyl)-6-ethyl-N-[1-(hydroxyacetyl)piperidin-4-yl]-1-methyl-4-oxo-3-(2,2,2-trifluoroethoxy)-4,5-dihydro-1H-pyrrolo[3,2-c]pyridine-2-carboxamide]: 100%; for `CCc1cc2c(c(OCC(F)(F)F)c(C(=O)NC3CCN(C(=O)CO)CC3)n2C)c(=O)n1CCc1ccccc1` [Example 661, 6-ethyl-N-[1-(hydroxyacetyl)piperidin-4-yl]-1-methyl-4-oxo-5-(2-phenylethyl)-3-(2,2,2-trifluoroethoxy)-4,5-dihydro-1H-pyrrolo[3,2-c]pyridine-2-carboxamide]: 100%.
